Experimental data from US11279703B2, “Fused pyrimidine compounds as BRD4 and JAK2 dual inhibitors and methods for use thereof” (APTOSE BIOSCIENCES INC., priority 2016, dated 2022).

What was measured:
[1] = target: JAK2 (Homo sapiens (Human), UniProt O60674); experiment: HTRF kinase assay, JAK2; assay type: biochemical; settings: Table 6
From the text: A kinase assay with HTRF was used to observe JAK activity and calculate the IC50s of compounds disclosed herein. HTRF is an enzymatic assay used to determine the amount of phosphorylated peptide. FRET (Fluorescence Resonance Energy Transfer) is based on the transfer of energy between two fluorophores—a donor and an acceptor—when in close proximity. Molecular interactions between biomolecules can be assessed by coupling each partner with a fluorescent label and by detecting the level of energy transfer. The amount of phopshorylated peptide can be detected using a combination of a Eu 3+Cryptate labeled anti-phospho residue antibody, SA-XL665 and a biotinylated substrate. The signal is proportional to the concentration of phospho-residues.
Equipment Required • 1. […] Plate centrifuge • 3. Plate shaker • 4. […] Single channel and multi-channel pipettes • 6. Microplate reader (Pherastar)]
Stock and Final Assay Concentrations (FAC) • 1. All reference and test compounds are made at a concentration of 10 mM in DMSO. Compounds are serially diluted in DMSO and a FAC starting from 10 μM to 10 point 3 fold serial dilutions is arrived. For Ruxolitinib the starting FAC is 1 μM. FAC of DMSO is 1%. • 2. Enzyme stock and FAC
• JAK-1: Invtirogen Cat: PR8767C • JAK-2: Invtirogen Cat: PR7820B • JAK-3: Invtirogen Cat: PR7507B • 3. Substrate (synthetic peptide-Biotinylated-N-terminal tag-[…] from Biopeptide) stock and FAC
• Adenosine 5′-triphosphate disodium salt hydrate: Sigma Cat: A26209 • 5. […] Buffers • Base buffer (for 50 ml)
• HTRF buffer: • 50 mM Tris-HCl, pH—7.5 • 100 mM NaCl • 0.1% BSA • 0.05% Tween20 • 0.5 mM EDTA
To a 384 well black-plate: • 1. Add 17 μL of the buffer to each well of the 384-well black plate • 2. […] Add 5 μl of the enzyme to each well of the plate • 4. Add 10 μl of the substrate and ATP mix to all the wells • 5. Cover with plate sealer • 6. […] Incubate at room temperature for 1 hour on shaker • 8. […] Add 37.5 μL of the HTRF mix to these wells. • 9. Incubate the plate at room temperature on shaker for 45 minutes. • 10.
The percent inhibition is calculated in the excel analysis template and the IC50 values are subsequently determined using a sigmoidal dose-response curve (variable slope) using GraphPad Prism® 5 software.

[2] = target: BRD4-BD1 (Homo sapiens (Human), UniProt O60885); experiment: AlphaLisa bromodomain binding assay, BRD4-BD1; settings: Table 6; read-out: BRD4(1) IC50

Sequence of JAK2 (O60674 whole entry): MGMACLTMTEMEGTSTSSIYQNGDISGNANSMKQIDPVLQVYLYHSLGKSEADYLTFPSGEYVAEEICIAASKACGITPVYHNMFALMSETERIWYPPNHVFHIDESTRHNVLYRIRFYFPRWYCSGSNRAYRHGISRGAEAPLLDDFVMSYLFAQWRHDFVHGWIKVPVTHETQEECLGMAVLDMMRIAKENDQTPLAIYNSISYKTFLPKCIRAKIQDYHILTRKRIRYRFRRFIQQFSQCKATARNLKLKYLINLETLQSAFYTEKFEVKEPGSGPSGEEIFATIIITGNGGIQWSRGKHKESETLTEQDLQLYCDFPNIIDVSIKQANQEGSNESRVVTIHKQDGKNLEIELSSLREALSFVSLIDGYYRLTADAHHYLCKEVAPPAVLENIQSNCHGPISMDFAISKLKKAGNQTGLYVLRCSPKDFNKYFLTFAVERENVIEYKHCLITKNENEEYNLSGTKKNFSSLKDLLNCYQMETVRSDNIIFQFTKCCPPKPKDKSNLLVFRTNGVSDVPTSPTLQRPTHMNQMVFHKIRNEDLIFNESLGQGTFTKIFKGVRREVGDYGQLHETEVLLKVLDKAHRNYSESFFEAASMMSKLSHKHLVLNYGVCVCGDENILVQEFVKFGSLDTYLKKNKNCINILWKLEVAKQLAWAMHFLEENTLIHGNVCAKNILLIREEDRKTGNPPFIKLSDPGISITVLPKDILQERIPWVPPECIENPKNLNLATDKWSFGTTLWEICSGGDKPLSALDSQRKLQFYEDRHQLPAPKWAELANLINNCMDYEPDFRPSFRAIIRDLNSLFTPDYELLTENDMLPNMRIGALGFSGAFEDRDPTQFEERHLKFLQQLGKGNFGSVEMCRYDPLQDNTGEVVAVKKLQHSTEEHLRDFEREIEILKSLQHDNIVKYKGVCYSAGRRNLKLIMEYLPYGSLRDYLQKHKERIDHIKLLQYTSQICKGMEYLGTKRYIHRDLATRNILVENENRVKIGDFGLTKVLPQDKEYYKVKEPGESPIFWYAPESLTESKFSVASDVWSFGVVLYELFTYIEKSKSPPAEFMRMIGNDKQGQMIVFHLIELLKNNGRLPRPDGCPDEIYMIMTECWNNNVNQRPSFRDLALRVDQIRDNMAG

Row | IC50 [1] | IC50 [2] | SMILES
1 | 120 nM | 1100 nM | CC(C)(C)S(=O)(=O)Nc1cc(-n2ccc3cnc(Nc4ccc(N5CCC(C(=O)O)CC5)c(F)c4)nc32)ccc1F
2 | 72 nM | 577 nM | CN1CCN(c2ccc(Nc3ncc4ccn(-c5cccc(NS(=O)(=O)C(C)(C)C)c5)c4n3)cc2C(N)=O)CC1
3 | 3 nM | 8300 nM | CN1CCN(c2ccc(Nc3ncc4ccn(-c5cccc(CNS(=O)(=O)C(C)(C)C)c5)c4n3)cc2)CC1
4 | 12 nM | 930 nM | CN1CCN(c2ccc(Nc3ncc4ccn(-c5cccc(NS(=O)(=O)C6(C)CC6)c5)c4n3)cc2)CC1
5 | 10000 nM | 10000 nM | CN1CCN(c2ccc(Nc3ccc4ccn(-c5cccc(NS(=O)(=O)C(C)(C)C)c5)c4n3)cc2)CC1
6 | 251 nM | 142 nM | CNCCNC(=O)Cc1ccc(Nc2ncc3ccn(-c4ccc(F)c(NS(=O)(=O)C(C)(C)C)c4)c3n2)cc1F
7 | 142 nM | 295 nM | CC(C)(C)S(=O)(=O)Nc1cc(-n2ccc3cnc(Nc4ccc(N5CCNC(=O)C5)c(F)c4)nc32)ccc1F
8 | 10 nM | 3800 nM | CN1CCN(c2ccc(Nc3ncc4cccc(-c5cccc(NS(=O)(=O)C(C)(C)C)c5)c4n3)cc2)CC1
9 | 6 nM | 636 nM | CN(C)C1CCN(c2ccc(Nc3ncc4ccn(-c5cccc(NS(=O)(=O)C6(C)CC6)c5)c4n3)cc2)CC1
10 | 129 nM | 491 nM | CN(C)C(=O)C1CCN(c2ccc(Nc3ncc4ccn(-c5ccc(F)c(NS(=O)(=O)C(C)(C)C)c5)c4n3)cc2F)CC1
11 | 4.7 nM | 1400 nM | CCC1(S(=O)(=O)Nc2cccc(-n3ccc4cnc(Nc5ccc(N6CCC(N(C)C)CC6)cc5)nc43)c2)CC1
12 | 5 nM | 1500 nM | CCC1(S(=O)(=O)Nc2cccc(-n3ccc4cnc(Nc5ccc(N6CCC(N(C)C)CC6)c(F)c5)nc43)c2)CC1
13 | 3 nM | 368 nM | CN(C)C1CCN(c2ccc(Nc3ncc4scc(-c5cccc(NS(=O)(=O)C(C)(C)C)c5)c4n3)cc2)CC1
14 | 83 nM | 143 nM | CN(C)CC1CCN(c2ccc(Nc3ncc4ccn(-c5ccc(F)c(NS(=O)(=O)C(C)(C)C)c5)c4n3)cc2F)CC1
15 | 14 nM | 366 nM | CN1CCN2c3ccc(Nc4ncc5ccn(-c6cccc(NS(=O)(=O)C(C)(C)C)c6)c5n4)cc3CC2C1 (stereo not drawn)
16 | 24 nM | 963 nM | CCC1(S(=O)(=O)Nc2cc(-n3ccc4cnc(Nc5ccc(N6CCC(N(C)C)CC6)c(F)c5)nc43)ccc2F)CC1
17 | 137 nM | 321 nM | CN1CCN2c3ccc(Nc4ncc5ccn(-c6ccc(F)c(NS(=O)(=O)C(C)(C)C)c6)c5n4)cc3CC2C1 (stereo not drawn)
18 | 4 nM | 297 nM | CN(C)C1CCN(c2ccc(Nc3ncc4scc(-c5cccc(NS(=O)(=O)C(C)(C)C)c5)c4n3)cc2F)CC1
19 | 18 nM | 393 nM | CN1CCN(c2ccc(Nc3ncc4scc(-c5cccc(NS(=O)(=O)C(C)(C)C)c5)c4n3)cc2F)CC1
20 | 103 nM | 1500 nM | CCC1(S(=O)(=O)Nc2cc(-n3ccc4cnc(Nc5ccc(N6CCN(C)CC6)c(F)c5)nc43)ccc2F)CC1
21 | 2 nM | 607 nM | CN1CCN2c3ccc(Nc4ncc5scc(-c6cccc(NS(=O)(=O)C(C)(C)C)c6)c5n4)cc3CC2C1 (stereo not drawn)
22 | 70 nM | 800 nM | CN1CCCc2cc(Nc3ncc4ccn(-c5cccc(NS(=O)(=O)C(C)(C)C)c5)c4n3)ccc21
23 | 20 nM | 248 nM | CN(C)C1CCN(c2ccc(Nc3ncc4ccn(-c5ccc(F)c(NS(=O)(=O)C6(C)CC6)c5)c4n3)cc2F)CC1
24 | 36 nM | 228 nM | CN1CCN(c2ccc(Nc3ncc4scc(-c5ccc(F)c(NS(=O)(=O)C(C)(C)C)c5)c4n3)cc2F)CC1
25 | 35 nM | 3200 nM | CN1C(=O)CCc2cc(Nc3ncc4ccn(-c5cccc(NS(=O)(=O)C(C)(C)C)c5)c4n3)ccc21
26 | 5 nM | 318 nM | CC(C)(C)S(=O)(=O)Nc1cccc(-c2csc3cnc(Nc4ccc5c(c4)CC4CNCCN54)nc23)c1 (stereo not drawn)
27 | 51 nM | 162 nM | CC(C)(C)S(=O)(=O)Nc1cc(-c2csc3cnc(Nc4ccc(N5CCNCC5)c(F)c4)nc23)ccc1F
